Laboratory results from ChEMBL document CHEMBL1201862, “PubChem BioAssay data set” (2004).
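In this assay, cells in 96-well plates receive the compound at five concentrations for 48 hours. Endpoints are linearly interpolated between the surrounding concentrations. GI50 = concentration required for 50% inhibition of growth.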 Calls of active or inactive are those of the source. Cut-off read from the data, not from the text of the source: active = GI50 up to about 1.1 µM and inactive = higher.

Columns and labels:
Assay in all cases: inhibition of tumour cell growth, NCI panel, 48 h
[1] = system: HCC 2998
[2] = system: CAKI-1
[3] = system: NCI-H522
[4] = system: KM12
[5] = system: SNB-75
[6] = system: NCI/ADR-RES
[7] = system: NCI-H226
[8] = system: LOX IMVI
[9] = system: HCT-116
[10] = system: HL-60
[11] = system: SF-295
[12] = system: T47D
[13] = system: M14
[14] = system: 786-0
[15] = system: A498
[16] = system: RXF 393
[17] = system: PC-3
[18] = system: NCI-H460
[19] = system: HOP-92
[20] = system: SR

SMILES | GI50 [1] | GI50 [2] | GI50 [3] | GI50 [4] | GI50 [5] | GI50 [6] | GI50 [7] | GI50 [8] | GI50 [9] | GI50 [10] | GI50 [11] | GI50 [12] | GI50 [13] | GI50 [14] | GI50 [15] | GI50 [16] | GI50 [17] | GI50 [18] | GI50 [19] | GI50 [20]
COc1ccc(C2C3=C(COC3=O)Oc3cc4c(cc32)OCO4)cc1OC (stereo not drawn) | 0.614 µM (active) | 2.82 µM (inactive) | 0.437 µM (active) | 0.301 µM (active) | 1.82 µM (inactive) | 0.33 µM (active) | 4.65 µM (inactive) | 0.65 µM (active) | 0.465 µM (active) | 0.208 µM (active) | 0.716 µM (active) | 10.1 µM (inactive) | 1.52 µM (inactive) | 1.04 µM (active) | 0.352 µM (active) | 0.891 µM (active) | 0.521 µM (active) | 0.547 µM (active) | 39.4 µM (inactive) | 
CCCCCC/C=C\CCCCCCCCC(=O)c1cccc(OC)c1OC | > 100 µM (inactive) | > 100 µM (inactive) | 44.6 µM (inactive) | 84.7 µM (inactive) | > 100 µM (inactive) | 60.8 µM (inactive) | > 100 µM (inactive) | 16.8 µM (inactive) | 41.7 µM (inactive) | 14.8 µM (inactive) | 45.7 µM (inactive) | 29.2 µM (inactive) | > 100 µM (inactive) | > 100 µM (inactive) | 26 µM (inactive) | 21 µM (inactive) | 71 µM (inactive) |  |  | 64.9 µM (inactive)
CC(=O)O/C(=C(/C#N)C(=O)O)C1C(C(=O)O)C(c2ccccc2[N+](=O)[O-])C=C(c2ccco2)N1c1ccncc1 (stereo not drawn) | 4.97 µM (inactive) | 4.3 µM (inactive) | 2.09 µM (inactive) | 1.48 µM (inactive) | 6.38 µM (inactive) | 8.57 µM (inactive) | 4.63 µM (inactive) | 1.91 µM (inactive) | 1.52 µM (inactive) | 2.75 µM (inactive) | 7.67 µM (inactive) | 6.73 µM (inactive) | 2.87 µM (inactive) | 2.82 µM (inactive) | 11.2 µM (inactive) |  | 6.4 µM (inactive) | 6.35 µM (inactive) | 16 µM (inactive) | 
O=C(c1ccccc1)N1CCC(Nc2nccs2)O1 (stereo not drawn) | > 10 µM (inactive) | > 10 µM (inactive) | > 10 µM (inactive) |  | > 10 µM (inactive) | > 10 µM (inactive) | > 10 µM (inactive) | > 10 µM (inactive) | > 10 µM (inactive) | > 10 µM (inactive) | > 10 µM (inactive) | > 10 µM (inactive) | > 10 µM (inactive) | > 10 µM (inactive) |  | > 10 µM (inactive) | > 10 µM (inactive) | > 10 µM (inactive) |  | > 10 µM (inactive)
CC(=O)OCC12C(OC(C)=O)C[C@@H](C)C3(CC(c4ccoc4)OC3=O)C1CCC(OC(C)=O)C21CO1 (stereo partly drawn) | > 100 µM (inactive) | > 100 µM (inactive) | > 100 µM (inactive) | > 100 µM (inactive) | > 100 µM (inactive) | > 100 µM (inactive) | > 100 µM (inactive) | > 100 µM (inactive) | > 100 µM (inactive) | > 100 µM (inactive) | > 100 µM (inactive) | > 100 µM (inactive) | > 100 µM (inactive) | > 100 µM (inactive) | > 100 µM (inactive) | > 100 µM (inactive) | > 100 µM (inactive) | > 100 µM (inactive) | > 100 µM (inactive) | 
Cc1ccc(O)c(Cc2nc3ccccc3nc2-c2cccc(Cl)c2)c1 | 36.1 µM (inactive) | 52.7 µM (inactive) | 20.3 µM (inactive) | 59.6 µM (inactive) |  | 44.1 µM (inactive) | 44.9 µM (inactive) | 36.8 µM (inactive) | 42.9 µM (inactive) | 42 µM (inactive) | > 100 µM (inactive) | 79.8 µM (inactive) | > 100 µM (inactive) | > 100 µM (inactive) |  | > 100 µM (inactive) | 42 µM (inactive) | 54.3 µM (inactive) | 12.5 µM (inactive) | 24.7 µM (inactive)
CN1[C@@H]2CCCC[C@H]2N(C)P1(=O)C(O)/C=C/c1ccccc1 (stereo partly drawn) | > 100 µM (inactive) | > 100 µM (inactive) | > 100 µM (inactive) | > 100 µM (inactive) | > 100 µM (inactive) | > 100 µM (inactive) | > 100 µM (inactive) | > 100 µM (inactive) | > 100 µM (inactive) | > 100 µM (inactive) | > 100 µM (inactive) | > 100 µM (inactive) | > 100 µM (inactive) | > 100 µM (inactive) | > 100 µM (inactive) | > 100 µM (inactive) | > 100 µM (inactive) | > 100 µM (inactive) | > 100 µM (inactive) | 
